Results from patent US12723063B2, “GIPR-agonist compounds” (Eli Lilly and Company, priority 2019, dated 2026).
*1 amine or outer side, *2 acyl side, *3 side chain or, on linkers, in order; H or OH if unused. Where a SMILES comes first, the peptide text is derived from it. Side-chain parts run from the residue outwards. [ ]: non-standard residue; d: D form. The star is where a group is joined. C20 diacid = O=C(O)CCCCCCCCCCCCCCCCCCC(=O)*; γGlu = O=C(O)[C@H](CCC(=O)[*:2])N[*:1]; 4Pal = N[C@@H](Cc1ccncc1)C(=O)O; αMeL = CC(C)C[C@](C)(N)C(=O)O; Iva = CC[C@](C)(N)C(=O)O; AEEA = NCCOCCOCC(=O)O; Aib = CC(C)(N)C(=O)O

How the values were obtained:
human GLP-1R = target: T1, human GLP-1R (Homo sapiens, UniProt P43220); experiment: [125I]-GLP-1 binding, SPA with WGA beads, 0.1% bacitracin; conditions: geometric mean, read-out: hGLP1R Ki
T1 construct: expressed in transfected cells; crude membranes
T1 sequence (P43220 24-463): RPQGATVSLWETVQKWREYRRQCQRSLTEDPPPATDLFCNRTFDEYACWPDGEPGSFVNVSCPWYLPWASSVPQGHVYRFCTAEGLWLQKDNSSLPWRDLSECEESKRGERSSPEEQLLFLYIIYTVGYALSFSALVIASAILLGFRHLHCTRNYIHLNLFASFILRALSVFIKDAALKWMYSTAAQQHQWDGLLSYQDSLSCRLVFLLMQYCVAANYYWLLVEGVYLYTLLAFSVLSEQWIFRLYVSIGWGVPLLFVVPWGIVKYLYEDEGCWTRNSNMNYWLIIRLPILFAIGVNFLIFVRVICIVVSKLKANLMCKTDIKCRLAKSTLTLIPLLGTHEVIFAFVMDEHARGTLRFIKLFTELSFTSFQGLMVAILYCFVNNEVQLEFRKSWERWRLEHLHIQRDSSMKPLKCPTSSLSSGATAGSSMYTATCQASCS
In short: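 Binding buffer was 25 mM HEPES pH 7.4 with 2.5 mM CaCl2, 1 mM MgCl2, 0.1% (w/v) bacitracin, 0.003% Tween-20 and EDTA-free protease inhibitors. Four-parameter regression gave IC50, converted to Ki (geometric mean, SEM, n independent days).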

[1] = target: T2, human GLP-1 receptor (GLP-1R) (Homo sapiens, UniProt P43220); experiment: cAMP functional assay (HTRF) in HEK293 cells in presence of 0.1% casein; assay type: cell-based; conditions: HEK293 cells expressing human GLP-1R, geometric mean, read-out: hGLP1R cAMP Rel EC50 nM (SEM, n)
T2 construct: expressed in transfected cells; host or cells: HEK293
T2 sequence (P43220 24-463): as above

[2] = target: T3, human glucagon receptor (GcgR) (Homo sapiens, UniProt P47871); experiment: as above; assay type: cell-based; conditions: HEK293 cells expressing human GcgR, geometric mean, read-out: hGcgR cAMP Rel EC50 nM (SEM, n)
T3 construct: expressed in transfected cells; host or cells: HEK293
T3 sequence (P47871 26-477): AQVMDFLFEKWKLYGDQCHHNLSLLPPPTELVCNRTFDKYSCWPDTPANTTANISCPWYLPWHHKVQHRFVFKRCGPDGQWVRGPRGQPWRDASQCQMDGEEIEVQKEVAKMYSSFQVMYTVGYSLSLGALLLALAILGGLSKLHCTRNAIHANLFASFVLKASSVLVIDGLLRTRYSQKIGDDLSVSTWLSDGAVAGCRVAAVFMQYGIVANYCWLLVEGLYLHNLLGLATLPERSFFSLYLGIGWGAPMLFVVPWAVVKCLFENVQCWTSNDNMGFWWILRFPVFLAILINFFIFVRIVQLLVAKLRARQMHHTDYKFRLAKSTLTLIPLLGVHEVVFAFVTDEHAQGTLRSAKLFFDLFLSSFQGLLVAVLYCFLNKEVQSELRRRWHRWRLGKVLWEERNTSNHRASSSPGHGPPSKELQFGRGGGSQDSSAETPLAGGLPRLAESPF

SMILES	Ki (human GLP-1R) [nM]	EC50 [1] [nM]	EC50 [2] [nM]
CC[C@H](C)[C@H](NC(=O)[C@H](Cc1ccccc1)NC(=O)[C@@H](NC(=O)CNC(=O)[C@H](CCC(=O)O)NC(=O)C(C)(C)NC(=O)[C@@H](N)Cc1ccc(O)cc1)[C@@H](C)O)C(=O)N[C@@H](CO)C(=O)N[C@@H](CC(=O)O)C(=O)N[C@@H](Cc1ccc(O)cc1)C(=O)N[C@@H](CO)C(=O)N[C@H](C(=O)N[C@@](C)(CC(C)C)C(=O)N[C@@H](CC(C)C)C(=O)N[C@@H](CC(=O)O)C(=O)N[C@@H](CCCCN)C(=O)N[C@@H](CCCCNC(=O)COCCOCCNC(=O)COCCOCCNC(=O)CC[C@H](NC(=O)CCCCCCCCCCCCCCCCCCC(=O)O)C(=O)O)C(=O)N[C@@H](Cc1c[nH]cn1)C(=O)N[C@@H](CCC(N)=O)C(=O)NC(C)(C)C(=O)N[C@@H](CCC(=O)O)C(=O)N[C@@H](Cc1ccccc1)C(=O)N[C@H](C(=O)N[C@@H](CCC(=O)O)C(=O)N[C@@H](Cc1ccncc1)C(=O)N[C@@H](CC(C)C)C(=O)N[C@@H](CC(C)C)C(=O)N[C@@H](C)C(=O)NCC(=O)NCC(=O)N1CCC[C@H]1C(=O)N[C@@H](CO)C(=O)N[C@@H](CO)C(=O)NCC(=O)N[C@@H](C)C(=O)N1CCC[C@H]1C(=O)N1CCC[C@H]1C(=O)N1CCC[C@H]1C(=O)N[C@@H](CO)C(N)=O)C(C)C)[C@@H](C)CC [Example 52]	128	> 5000	337
CC[C@H](C)[C@H](NC(=O)[C@H](Cc1ccccc1)NC(=O)[C@@H](NC(=O)CNC(=O)[C@H](CCC(=O)O)NC(=O)C(C)(C)NC(=O)[C@@H](N)Cc1ccc(O)cc1)[C@@H](C)O)C(=O)N[C@@H](CO)C(=O)N[C@@H](CC(=O)O)C(=O)N[C@@H](Cc1ccc(O)cc1)C(=O)N[C@@H](CO)C(=O)N[C@H](C(=O)N[C@@](C)(CC(C)C)C(=O)N[C@@H](CC(C)C)C(=O)N[C@@H](CC(=O)O)C(=O)N[C@@H](CCCCN)C(=O)N[C@@H](CCCCNC(=O)COCCOCCNC(=O)COCCOCCNC(=O)CC[C@H](NC(=O)CCCCCCCCCCCCCCCCCCC(=O)O)C(=O)O)C(=O)N[C@@H](Cc1c[nH]cn1)C(=O)N[C@@H](CCC(N)=O)C(=O)NC(C)(C)C(=O)N[C@@H](CC(=O)O)C(=O)N[C@@H](Cc1ccccc1)C(=O)N[C@H](C(=O)N[C@@H](CCC(=O)O)C(=O)N[C@@H](Cc1ccc(O)cc1)C(=O)N[C@@H](CC(C)C)C(=O)N[C@@H](CC(C)C)C(=O)N[C@@H](C)C(=O)NCC(=O)NCC(=O)N1CCC[C@H]1C(=O)N[C@@H](CO)C(=O)N[C@@H](CO)C(=O)NCC(=O)N[C@@H](C)C(=O)N1CCC[C@H]1C(=O)N1CCC[C@H]1C(=O)N1CCC[C@H]1C(=O)N[C@@H](CO)C(N)=O)C(C)C)[C@@H](C)CC [Example 53] (H-Y[Aib]EGTFISDYSI[αMeL]LDKK([AEEA-AEEA-γGlu-C20 diacid])HQ[Aib]DFVEYLLAGGPSSGAPPPS-NH2)	62.9	> 5000	344
CC[C@H](C)[C@H](NC(=O)[C@H](Cc1ccccc1)NC(=O)[C@@H](NC(=O)CNC(=O)[C@H](CCC(=O)O)NC(=O)C(C)(C)NC(=O)[C@@H](N)Cc1ccc(O)cc1)[C@@H](C)O)C(=O)N[C@@H](CO)C(=O)N[C@@H](CC(=O)O)C(=O)N[C@@H](Cc1ccc(O)cc1)C(=O)N[C@@H](CO)C(=O)N[C@H](C(=O)N[C@@](C)(CC(C)C)C(=O)N[C@@H](CC(C)C)C(=O)N[C@@H](CC(=O)O)C(=O)N[C@@H](CCCCN)C(=O)N[C@@H](CCCCNC(=O)COCCOCCNC(=O)COCCOCCNC(=O)CC[C@H](NC(=O)CCCCCCCCCCCCCCCCCCC(=O)O)C(=O)O)C(=O)N[C@@H](Cc1c[nH]cn1)C(=O)N[C@@H](CCC(N)=O)C(=O)NC(C)(C)C(=O)N[C@@H](CC(=O)O)C(=O)N[C@@H](Cc1ccccc1)C(=O)N[C@H](C(=O)N[C@@H](CCC(=O)O)C(=O)N[C@@H](Cc1c[nH]c2ccccc12)C(=O)N[C@@H](CC(C)C)C(=O)N[C@@H](CC(C)C)C(=O)N[C@@H](C)C(=O)NCC(=O)NCC(=O)N1CCC[C@H]1C(=O)N[C@@H](CO)C(=O)N[C@@H](CO)C(=O)NCC(=O)N[C@@H](C)C(=O)N1CCC[C@H]1C(=O)N1CCC[C@H]1C(=O)N1CCC[C@H]1C(=O)N[C@@H](CO)C(N)=O)C(C)C)[C@@H](C)CC [Example 54] (H-Y[Aib]EGTFISDYSI[αMeL]LDKK([AEEA-AEEA-γGlu-C20 diacid])HQ[Aib]DFVEWLLAGGPSSGAPPPS-NH2)	49.9	> 5000	> 5000
CC[C@H](C)[C@H](NC(=O)[C@H](CO)NC(=O)[C@H](Cc1ccc(O)cc1)NC(=O)[C@H](CC(=O)O)NC(=O)[C@H](CO)NC(=O)[C@@H](NC(=O)[C@](C)(CC)NC(=O)[C@@H](NC(=O)CNC(=O)[C@H](CCC(=O)O)NC(=O)C(C)(C)NC(=O)[C@@H](N)Cc1ccc(O)cc1)[C@@H](C)O)[C@@H](C)CC)C(=O)N[C@@](C)(CC(C)C)C(=O)N[C@@H](CC(C)C)C(=O)N[C@@H](CC(=O)O)C(=O)N[C@@H](CCCCN)C(=O)N[C@@H](CCCCNC(=O)COCCOCCNC(=O)COCCOCCNC(=O)CC[C@H](NC(=O)CCCCCCCCCCCCCCCCCCC(=O)O)C(=O)O)C(=O)N[C@@H](Cc1c[nH]cn1)C(=O)N[C@@H](CCC(N)=O)C(=O)NC(C)(C)C(=O)N[C@@H](CC(=O)O)C(=O)N[C@@H](Cc1ccccc1)C(=O)N[C@H](C(=O)N[C@@H](CCC(=O)O)C(=O)N[C@@H](Cc1ccncc1)C(=O)N[C@@H](CC(C)C)C(=O)N[C@@H](CC(C)C)C(=O)N[C@@H](C)C(=O)NCC(=O)NCC(=O)N1CCC[C@H]1C(=O)N[C@@H](CO)C(=O)N[C@@H](CO)C(=O)NCC(=O)N[C@@H](C)C(=O)N1CCC[C@H]1C(=O)N1CCC[C@H]1C(=O)N1CCC[C@H]1C(=O)N[C@@H](CO)C(N)=O)C(C)C [Example 55] (H-Y[Aib]EGT[Iva]ISDYSI[αMeL]LDKK([AEEA-AEEA-γGlu-C20 diacid])HQ[Aib]DFVE[4Pal]LLAGGPSSGAPPPS-NH2)	262	> 5000	> 5000
CC[C@H](C)[C@H](NC(=O)[C@H](Cc1ccccc1)NC(=O)[C@@H](NC(=O)CNC(=O)[C@H](CCC(=O)O)NC(=O)C(C)(C)NC(=O)[C@@H](N)Cc1ccc(O)cc1)[C@@H](C)O)C(=O)N[C@@H](CO)C(=O)N[C@@H](CC(=O)O)C(=O)N[C@@H](Cc1ccc(O)cc1)C(=O)N[C@@H](CO)C(=O)N[C@H](C(=O)N[C@@](C)(CC(C)C)C(=O)N[C@@H](CC(C)C)C(=O)N[C@@H](CC(=O)O)C(=O)N[C@@H](CCCCN)C(=O)N[C@@H](CCCCNC(=O)COCCOCCNC(=O)COCCOCCNC(=O)CC[C@H](NC(=O)CCCCCCCCCCCCCCCCCCC(=O)O)C(=O)O)C(=O)N[C@@H](Cc1c[nH]cn1)C(=O)N[C@@H](CCC(N)=O)C(=O)NC(C)(C)C(=O)N[C@@H](CC(=O)O)C(=O)N[C@@](C)(Cc1ccccc1)C(=O)N[C@H](C(=O)N[C@@H](CCC(=O)O)C(=O)N[C@@H](Cc1ccncc1)C(=O)N[C@@H](CC(C)C)C(=O)N[C@@H](CC(C)C)C(=O)N[C@@H](C)C(=O)NCC(=O)NCC(=O)N1CCC[C@H]1C(=O)N[C@@H](CO)C(=O)N[C@@H](CO)C(=O)NCC(=O)N[C@@H](C)C(=O)N1CCC[C@H]1C(=O)N1CCC[C@H]1C(=O)N1CCC[C@H]1C(=O)N[C@@H](CO)C(N)=O)C(C)C)[C@@H](C)CC [Example 56]	530	> 5000	> 5000
CC[C@H](C)[C@H](NC(=O)[C@H](Cc1ccccc1)NC(=O)[C@@H](NC(=O)CNC(=O)[C@H](CCC(=O)O)NC(=O)C(C)(C)NC(=O)[C@@H](N)Cc1ccc(O)cc1)[C@@H](C)O)C(=O)N[C@@H](CO)C(=O)N[C@@H](CC(=O)O)C(=O)N[C@@H](Cc1ccc(O)cc1)C(=O)N[C@@H](CO)C(=O)N[C@H](C(=O)N[C@@](C)(CC(C)C)C(=O)N[C@@H](CC(C)C)C(=O)N[C@@H](CC(=O)O)C(=O)N[C@@H](CCCCN)C(=O)N[C@@H](CCCCNC(=O)COCCOCCNC(=O)COCCOCCNC(=O)CC[C@H](NC(=O)CCCCCCCCCCCCCCCCCCC(=O)O)C(=O)O)C(=O)N[C@@H](Cc1c[nH]cn1)C(=O)N[C@@H](CCC(N)=O)C(=O)NC(C)(C)C(=O)N[C@@H](CCC(=O)O)C(=O)N[C@@H](Cc1ccccc1)C(=O)N[C@H](C(=O)N[C@@H](CCC(=O)O)C(=O)N[C@@H](Cc1ccncc1)C(=O)N[C@@H](CC(C)C)C(=O)N[C@@H](CC(C)C)C(=O)N[C@@H](C)C(=O)N[C@@H](CCC(N)=O)C(=O)NCC(=O)N1CCC[C@H]1C(=O)N[C@@H](CO)C(=O)N[C@@H](CO)C(=O)NCC(=O)N[C@@H](C)C(=O)N1CCC[C@H]1C(=O)N1CCC[C@H]1C(=O)N1CCC[C@H]1C(=O)N[C@@H](CO)C(N)=O)C(C)C)[C@@H](C)CC [Example 57] (H-Y[Aib]EGTFISDYSI[αMeL]LDKK([AEEA-AEEA-γGlu-C20 diacid])HQ[Aib]EFVE[4Pal]LLAQGPSSGAPPPS-NH2)	280	> 5000	886
